This experiment concerns the target T1, recombinant Vps34 (Homo sapiens, UniProt Q8NEB9).
T1 construct: purchased Invitrogen PV5126
Description: Phosphorylation of phosphatidylinositol (PI) by Vps34 in vitro, ADP detected by TR-FRET (HTRF Transcreener ADP). The format is biochemical. To be noted: 10 μM ATP, 55 μg/ml PI, approximately 3 nM Vps34, 1 hour at ambient temperature; absolute IC50, mean of two independent experiments; read-out: IC50 activity range.

The values that follow come from US11739100B2, “2,3-dihydro-1h-imidazo{1,2-a}pyrimidin-5-one and this 1,2,3,4-tetrahydropyrimido{1,2-a}pyrimidin-6-one derivatives comprising a substituted morpholine, preparation thereof and pharmaceutical use thereof” (SANOFI, priority 2012, dated 2023).

A value given as a limit tells only on which side of the number the result lay.

T1 sequence (Q8NEB9 whole entry): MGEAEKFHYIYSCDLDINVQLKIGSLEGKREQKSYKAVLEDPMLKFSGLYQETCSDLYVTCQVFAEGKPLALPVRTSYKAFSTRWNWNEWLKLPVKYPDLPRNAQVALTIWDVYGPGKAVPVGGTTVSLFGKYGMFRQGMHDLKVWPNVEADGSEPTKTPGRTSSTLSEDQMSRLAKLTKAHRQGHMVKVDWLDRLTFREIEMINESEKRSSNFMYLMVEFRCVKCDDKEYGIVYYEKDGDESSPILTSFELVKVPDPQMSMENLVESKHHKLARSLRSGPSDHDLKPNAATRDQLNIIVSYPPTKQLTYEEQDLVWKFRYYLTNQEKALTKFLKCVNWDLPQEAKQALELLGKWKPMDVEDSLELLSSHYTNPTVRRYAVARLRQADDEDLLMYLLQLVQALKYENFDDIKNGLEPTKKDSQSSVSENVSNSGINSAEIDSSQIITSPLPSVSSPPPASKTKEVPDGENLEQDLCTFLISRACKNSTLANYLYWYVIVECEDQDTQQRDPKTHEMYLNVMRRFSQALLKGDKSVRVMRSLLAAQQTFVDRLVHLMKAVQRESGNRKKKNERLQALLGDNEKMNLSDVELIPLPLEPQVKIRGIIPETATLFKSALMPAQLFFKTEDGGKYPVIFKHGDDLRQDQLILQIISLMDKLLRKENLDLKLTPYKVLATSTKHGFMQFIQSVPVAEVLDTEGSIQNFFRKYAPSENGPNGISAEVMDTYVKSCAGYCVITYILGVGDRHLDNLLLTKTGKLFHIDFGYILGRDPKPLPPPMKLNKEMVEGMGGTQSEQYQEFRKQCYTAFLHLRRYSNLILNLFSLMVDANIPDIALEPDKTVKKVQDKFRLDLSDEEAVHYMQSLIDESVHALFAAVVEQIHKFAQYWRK

By IC50 is commonly meant the midpoint of a concentration-inhibition curve. In the case of `CC(C)C(O)CN1c2nc(N3CCOC[C@H]3C)cc(=O)n2CC[C@H]1C(F)(F)F` (stereo partly drawn) [Example 287, (S)-9-(2-Hydroxy-3-methylbutyl)-2-((R)-3-methylmorpholin-4-yl)-8-trifluoromethyl-6,7,8,9-tetrahydro-pyrimido[1,2-a]-pyrimidin-4-one], the IC50 is under 10 nM. On to `CC(C)CCC(=O)CN1c2nc(N3CCOC[C@H]3C)cc(=O)n2CC[C@H]1C(F)(F)F` [Example 290, (S)-2-((R)-3-Methyl-morpholin-4-yl)-9-(5-methyl-2-oxo-hexyl)-8-trifluoromethyl-6,7,8,9-tetrahydro-pyrimido[1,2-a]-pyrimidin-4-one], for which the IC50 is under 10 nM.

Consider `CCC(C)C(=O)CN1c2nc(N3CCOC[C@H]3C)cc(=O)n2CC[C@H]1C(F)(F)F` (stereo partly drawn) [Example 291, (S)-2-((R)-3-Methyl-morpholin-4-yl)-9-(3-methyl-2-oxo-pentyl)-8-trifluoromethyl-6,7,8,9-tetrahydro-pyrimido[1,2-a]-pyrimidin-4-one], for which the 50% inhibitory concentration (IC50) is under 10 nM.

On to `C[C@@H]1COCCN1c1cc(=O)n2c(n1)N(Cc1nc(C(F)(F)F)no1)[C@H](C(F)(F)F)CC2` [Example 292, (S)-2-((R)-3-Methyl-morpholin-4-yl)-8-trifluoromethyl-9-(3-trifluoromethyl-[1,2,4]oxadiazol-5-yl-methyl)-6,7,8,9-tetrahydro-pyrimido[1,2-a]-pyrimidin-4-one], for which the IC50 was under 10 nM. In the case of `C[C@@H]1COCCN1c1nc2n(c(=O)c1F)CC[C@@H](C(F)(F)F)N2CC(=O)N1CC2(COC2)C1` [Example 293, (S)-3-Fluoro-2-((R)-3-methylmorpholin-4-yl)-9-[2-(2-oxa-6-aza-spiro[3.3]hept-6-yl)-2-oxoethyl]-8-trifluoromethyl-6,7,8,9-tetrahydro-pyrimido[1,2-a]-pyrimidin-4-one] it was under 10 nM; in that of `Cc1cc(C(=O)CN2c3nc(N4CCOC[C@H]4C)c(F)c(=O)n3CC[C@H]2C(F)(F)F)no1` [Example 294, (S)-3-Fluoro-9-[2-(5-methylisoxazol-3-yl)-2-oxoethyl]-2-((R)-3-methylmorpholin-4-yl)-8-trifluoromethyl-6,7,8,9-tetrahydro-pyrimido[1,2-a]-pyrimidin-4-one], under 10 nM; in that of `C[C@@H]1COCCN1c1cc(=O)n2c(n1)N(C[C@H](F)c1ccccc1)[C@H](C(F)(F)F)CC2` [Example 295, (S)-9-(2-Fluoro-2-phenylethyl)-2-((R)-3-methylmorpholin-4-yl)-8-trifluoromethyl-6,7,8,9-tetrahydro-pyrimido[1,2-a]-pyrimidin-4-one], under 10 nM. Regarding `C[C@@H]1COCCN1c1nc2n(c(=O)c1F)CC[C@@H](C(F)(F)F)N2Cc1ccon1` [Example 296, (S)-3-Fluoro-9-isoxazol-3-ylmethyl-2-((R)-3-methyl-morpholin-4-yl)-8-trifluoromethyl-6,7,8,9-tetrahydro-pyrimido[1,2-a]-pyrimidin-4-one], the IC50 is under 10 nM. In the case of `C[C@@H]1COCCN1c1nc2n(c(=O)c1F)CC[C@@H](C(F)(F)F)N2Cc1ccnn1C(F)F` [Example 297, (S)-9-(2-Difluoromethyl-2H-pyrazol-3-ylmethyl)-3-fluoro-2-((R)-3-methyl-morpholin-4-yl)-8-trifluoromethyl-6,7,8,9-tetrahydro-pyrimido[1,2-a]-pyrimidin-4-one] it was under 10 nM; in that of `C[C@@H]1COCCN1c1cc(=O)n2c(n1)N(Cc1ccon1)C(C)(C)CC2` [Example 298, 9-Isoxazol-3-ylmethyl-8,8-dimethyl-2-((R)-3-methylmorpholin-4-yl)-6,7,8,9-tetrahydro-pyrimido[1,2-a]-pyrimidin-4-one], 10 to 100 nM. In the case of `Cc1cc(CN2c3nc(N4CCOC[C@H]4C)c(F)c(=O)n3CC[C@H]2C(F)(F)F)on1` [Example 299, (S)-3-Fluoro-9-(3-methylisoxazol-5-yl-methyl)-2-((R)-3-methylmorpholin-4-yl)-8-trifluoromethyl-6,7,8,9-tetrahydro-pyrimido[1,2-a]-pyrimidin-4-one] it was under 10 nM; in that of `CC(C)OCCN1c2nc(N3CCOC[C@H]3C)cc(=O)n2CC[C@H]1C(F)(F)F` [Example 300, (S)-9-(2-Isopropoxy-ethyl)-2-((R)-3-methyl-morpholin-4-yl)-8-trifluoromethyl-6,7,8,9-tetrahydro-pyrimido[1,2-a]-pyrimidin-4-one], under 10 nM; in that of `C[C@@H]1COCCN1c1cc(=O)n2c(n1)N(c1cccnc1)[C@H](C(F)(F)F)CC2` [Example 301, (S)-2-((R)-3-Methyl-morpholin-4-yl)-9-pyridin-3-yl-8-trifluoromethyl-6,7,8,9-tetrahydro-pyrimido[1,2-a]-pyrimidin-4-one], under 10 nM. Next, `C[C@@H]1COCCN1c1cc(=O)n2c(n1)N(c1ccc(C3CC3)nc1)[C@H](C(F)(F)F)CC2` [Example 302, (S)-9-(6-Cyclopropyl-pyridin-3-yl)-2-((R)-3-methylmorpholin-4-yl)-8-trifluoromethyl-6,7,8,9-tetrahydro-pyrimido[1,2-a]-pyrimidin-4-one]: under 10 nM; `C[C@@H]1COCCN1c1cc(C(=O)CN2c3nc(N4CCOC[C@H]4C)cc(=O)n3CC[C@H]2C(F)(F)F)ccn1` [Example 303, (S)-2-((R)-3-Methyl-morpholin-4-yl)-9-{2-[2-((R)-3-methyl-morpholin-4-yl)pyridin-4-yl]-2-oxoethyl}-8-trifluoromethyl-6,7,8,9-tetrahydropyrimido[1,2-a]pyrimidin-4-one]: under 10 nM. In the case of `C[C@@H]1COCCN1c1cc(=O)n2c(n1)N(CC(=O)C1(C)CCOCC1)[C@H](C(F)(F)F)CC2` [Example 310, (S)-2-((R)-3-Methyl-morpholin-4-yl)-9-[2-(4-methyl-tetrahydro-pyran-4-yl)-2-oxo-ethyl]-8-trifluoromethyl-6,7,8,9-tetrahydro-pyrimido[1,2-a]-pyrimidin-4-one], the 50% inhibitory concentration (IC50) was under 10 nM.

Regarding `Cc1cc(C(=O)CN2c3nc(N4CCOC[C@H]4C)cc(=O)n3CC[C@H]2C(F)(F)F)no1` [Example 311, (S)-9-[2-(5-Methyl-isoxazol-3-yl)-2-oxo-ethyl]-2-((R)-3-methyl-morpholin-4-yl)-8-trifluoromethyl-6,7,8,9-tetrahydro-pyrimido[1,2-a]-pyrimidin-4-one], the IC50 is under 10 nM.

`C[C@@H]1COC[C@@H](C)N1c1cc(=O)n2c(n1)N(Cc1cnc(Cl)s1)[C@H](C(F)(F)F)CC2` [Example 312, (S)-9-(2-Chloro-thiazol-5-ylmethyl)-2-((3R,5R)-3,5-dimethyl-morpholin-4-yl)-8-trifluoromethyl-6,7,8,9-tetrahydro-pyrimido[1,2-a]-pyrimidin-4-one]: the IC50 lay in the range of 10 to 100 nM. In the case of `C[C@@H]1COC[C@@H](C)N1c1cc(=O)n2c(n1)N(Cc1ccon1)[C@H](C(F)(F)F)CC2` [Example 313, (S)-2-((3R,5R)-3,5-Dimethylmorpholin-4-yl)-9-isoxazol-3-yl-methyl-8-trifluoromethyl-6,7,8,9-tetrahydropyrimido-[1,2-a]pyrimidin-4-one] it was under 10 nM; in that of `C[C@@H]1COCCN1c1nc2n(c(=O)c1F)CC[C@@H](C(F)(F)F)N2CC(=O)N1CCCO1` [Example 314, (S)-3-Fluoro-9-(2-isoxazolidin-2-yl-2-oxoethyl)-2-((R)-3-methylmorpholin-4-yl)-8-trifluoromethyl-6,7,8,9-tetrahydro-pyrimido[1,2-a]-pyrimidin-4-one], under 10 nM.
